# Experimental data as given in ChEMBL document CHEMBL1201862, “PubChem BioAssay data set” (2004).
# Active and inactive are the calls of the source.
# Legend:
# [1] = biological target: Peroxisome proliferator-activated receptor gamma/Nuclear receptor coactivator 1 (Homo sapiens, UniProt P37231); assay: (§1) TR-FRET dose response biochemical High Throughput Screening assay for agonists of the steroid receptor coactivator 1 (SRC-1) recruitment by the peroxisome proliferator-activated receptor gamma (PPAR gamma): non-selective agonists. [Related pubchem assays (depositor defined):AID1300, AID1808, AID504735, AID631]; assay type: protein assay
# [2] = biological target: Peroxisome proliferator-activated receptor gamma/Nuclear receptor coactivator 3 (Homo sapiens, UniProt P37231); assay: as §1, with “3 (SRC-3)” for “1 (SRC-1)”, “assays: 1301 (Confirmation screen.), 1048 (Primary screen.)]” for “assays (depositor defined):AID1300, AID1808, AID504735, AID631]”; assay type: functional
# [3] = biological target: Peroxisome proliferator-activated receptor gamma/Nuclear receptor coactivator 2 (Homo sapiens, UniProt P37231); assay: TR-FRET dose response biochemical High Throughput Screening assay for agonists of the steroid receptor coactivator 2 (SRC-2) recruitment by the peroxisome proliferator-activated receptor gamma (PPAR gamma): non-selective agonists. [Related pubchem assays: 1297, 1032 ]; assay type: functional
# [4] = biological target: Glyceraldehyde-3-phosphate dehydrogenase (Homo sapiens, UniProt P04406)
# Sequence of Glyceraldehyde-3-phosphate dehydrogenase (P04406 whole entry): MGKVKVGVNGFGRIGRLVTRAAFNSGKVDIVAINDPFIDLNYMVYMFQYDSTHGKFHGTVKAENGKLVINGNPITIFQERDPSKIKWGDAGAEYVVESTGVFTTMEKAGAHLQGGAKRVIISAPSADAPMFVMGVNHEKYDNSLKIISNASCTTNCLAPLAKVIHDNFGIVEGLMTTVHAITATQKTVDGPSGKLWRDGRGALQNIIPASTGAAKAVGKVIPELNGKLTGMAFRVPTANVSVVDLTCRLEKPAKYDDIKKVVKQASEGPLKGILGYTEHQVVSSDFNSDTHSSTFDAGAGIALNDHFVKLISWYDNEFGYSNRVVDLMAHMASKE
# [5] = biological target: T1, Alkaline phosphatase, tissue-nonspecific isozyme (Homo sapiens, UniProt P05186); assay: potency against alkaline phosphatase TNAP – biochemical, luminescent, dose response, SAR follow-up (AID 1056)
# T1 sequence (P05186 whole entry): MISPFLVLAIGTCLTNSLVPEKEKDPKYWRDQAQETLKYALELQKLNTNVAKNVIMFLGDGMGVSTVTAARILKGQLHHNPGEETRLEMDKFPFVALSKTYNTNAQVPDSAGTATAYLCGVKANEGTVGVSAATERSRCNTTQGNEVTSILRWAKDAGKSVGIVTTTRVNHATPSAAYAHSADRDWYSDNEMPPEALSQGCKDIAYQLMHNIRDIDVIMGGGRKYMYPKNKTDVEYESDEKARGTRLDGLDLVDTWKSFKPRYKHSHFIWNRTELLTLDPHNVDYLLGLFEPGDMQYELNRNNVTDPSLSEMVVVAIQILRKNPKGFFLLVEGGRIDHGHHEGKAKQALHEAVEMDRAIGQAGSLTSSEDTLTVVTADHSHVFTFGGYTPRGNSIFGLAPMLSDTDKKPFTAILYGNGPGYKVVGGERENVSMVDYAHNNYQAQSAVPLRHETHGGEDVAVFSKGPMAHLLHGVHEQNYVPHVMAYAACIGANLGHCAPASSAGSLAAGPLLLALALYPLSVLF
# [6] = biological target: Induced myeloid leukemia cell differentiation protein Mcl-1 (Homo sapiens, UniProt Q07820); assay type: functional
# Sequence of Induced myeloid leukemia cell differentiation protein Mcl-1 (Q07820 whole entry): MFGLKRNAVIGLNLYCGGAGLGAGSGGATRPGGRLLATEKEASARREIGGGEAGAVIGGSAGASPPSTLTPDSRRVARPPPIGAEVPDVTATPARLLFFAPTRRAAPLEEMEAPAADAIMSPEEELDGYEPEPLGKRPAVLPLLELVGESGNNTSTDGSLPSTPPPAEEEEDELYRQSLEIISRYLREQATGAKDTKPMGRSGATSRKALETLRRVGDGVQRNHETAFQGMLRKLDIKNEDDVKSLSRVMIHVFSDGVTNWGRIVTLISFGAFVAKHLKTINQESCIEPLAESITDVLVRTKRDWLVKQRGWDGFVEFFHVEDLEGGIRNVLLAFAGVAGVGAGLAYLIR
# [7] = biological target: T2, Coagulation factor XII (Homo sapiens, UniProt P00748); assay type: functional;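 further: activated factor XIIa alpha cleaving a fluorogenic AMC peptide substrate; inhibitor potency from loss of enzyme activity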
# T2 sequence (P00748 whole entry): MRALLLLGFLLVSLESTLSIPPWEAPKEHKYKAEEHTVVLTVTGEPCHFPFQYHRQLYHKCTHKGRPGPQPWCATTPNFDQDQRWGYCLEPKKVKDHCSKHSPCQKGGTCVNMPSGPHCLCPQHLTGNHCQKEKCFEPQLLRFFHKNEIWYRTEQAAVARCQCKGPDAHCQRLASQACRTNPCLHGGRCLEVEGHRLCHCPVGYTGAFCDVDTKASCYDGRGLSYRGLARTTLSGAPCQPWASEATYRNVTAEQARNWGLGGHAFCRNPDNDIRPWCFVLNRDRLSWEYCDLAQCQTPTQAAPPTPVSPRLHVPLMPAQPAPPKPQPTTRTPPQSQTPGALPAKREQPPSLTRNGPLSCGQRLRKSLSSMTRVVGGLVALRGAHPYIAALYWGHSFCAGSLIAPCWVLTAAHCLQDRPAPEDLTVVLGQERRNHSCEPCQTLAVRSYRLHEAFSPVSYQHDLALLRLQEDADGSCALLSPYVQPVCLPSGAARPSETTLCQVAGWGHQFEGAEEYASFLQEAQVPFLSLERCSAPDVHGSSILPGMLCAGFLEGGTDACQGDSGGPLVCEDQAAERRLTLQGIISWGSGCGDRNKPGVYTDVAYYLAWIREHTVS
# [8] = viability loss in HeLa cells – cytotoxicity control for MgcRacGAP inhibitor project, dose response (AID 624300); assay type: functional
# [9] = biological target: T3, Rac GTPase-activating protein 1 (Homo sapiens, UniProt Q9H0H5); assay: blockers of MgcRacGAP-driven Rac1 GTP hydrolysis – biochemical, ADP Hunter fluorescence, primary and confirmatory, confirmation (AID 624330); assay type: functional
# T3 sequence (Q9H0H5 whole entry): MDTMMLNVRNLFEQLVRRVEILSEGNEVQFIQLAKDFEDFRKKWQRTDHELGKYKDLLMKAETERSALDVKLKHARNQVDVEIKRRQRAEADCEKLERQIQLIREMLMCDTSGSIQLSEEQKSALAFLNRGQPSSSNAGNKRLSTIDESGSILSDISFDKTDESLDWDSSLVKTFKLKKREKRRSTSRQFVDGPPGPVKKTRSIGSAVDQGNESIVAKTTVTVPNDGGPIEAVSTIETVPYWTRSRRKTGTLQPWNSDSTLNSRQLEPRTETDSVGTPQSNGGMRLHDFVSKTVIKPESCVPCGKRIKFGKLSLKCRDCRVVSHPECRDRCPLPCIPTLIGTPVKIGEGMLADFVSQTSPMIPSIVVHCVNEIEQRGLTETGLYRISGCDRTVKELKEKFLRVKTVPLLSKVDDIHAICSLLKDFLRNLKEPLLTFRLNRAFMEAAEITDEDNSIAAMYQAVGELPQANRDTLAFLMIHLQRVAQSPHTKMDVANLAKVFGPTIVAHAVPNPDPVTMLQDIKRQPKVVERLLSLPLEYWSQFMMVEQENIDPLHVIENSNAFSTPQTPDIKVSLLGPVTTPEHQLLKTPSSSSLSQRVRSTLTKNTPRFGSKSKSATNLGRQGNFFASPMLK
# [10] = biological target: DNA dC->dU-editing enzyme APOBEC-3A (Homo sapiens, UniProt P31941); assay: Dose Response confirmation of small molecule APOBEC3A DNA Deaminase Inhibitors via a fluorescence-based single-stranded DNA deaminase assay. [Related pubchem assays (depositor defined):AID493011, AID493024]; assay type: functional
# Sequence of DNA dC->dU-editing enzyme APOBEC-3A (P31941 whole entry): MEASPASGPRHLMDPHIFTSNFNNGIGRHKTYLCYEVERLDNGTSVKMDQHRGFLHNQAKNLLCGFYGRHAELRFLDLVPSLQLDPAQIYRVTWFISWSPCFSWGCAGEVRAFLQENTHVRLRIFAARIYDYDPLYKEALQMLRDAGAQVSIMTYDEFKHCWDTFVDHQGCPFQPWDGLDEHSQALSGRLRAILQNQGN
# [11] = biological target: DNA dC->dU-editing enzyme APOBEC-3G (Homo sapiens, UniProt Q9HC16); assay type: functional;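 further: Dose-response counterscreen measuring inhibition of APOBEC3G DNA deaminase activity, run while confirming APOBEC3A inhibitors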
# Sequence of DNA dC->dU-editing enzyme APOBEC-3G (Q9HC16 whole entry): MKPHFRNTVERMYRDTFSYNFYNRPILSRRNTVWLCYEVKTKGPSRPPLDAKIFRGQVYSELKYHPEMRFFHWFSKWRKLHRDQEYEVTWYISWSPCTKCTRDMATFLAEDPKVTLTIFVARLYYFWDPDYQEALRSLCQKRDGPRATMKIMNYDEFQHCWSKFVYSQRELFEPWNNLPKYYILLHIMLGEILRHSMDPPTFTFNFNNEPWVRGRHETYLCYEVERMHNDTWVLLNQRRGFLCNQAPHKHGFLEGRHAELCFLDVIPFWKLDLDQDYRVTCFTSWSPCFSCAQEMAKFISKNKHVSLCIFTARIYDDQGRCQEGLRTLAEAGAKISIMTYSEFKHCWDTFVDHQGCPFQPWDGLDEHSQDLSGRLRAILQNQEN
# [12] = NIH-3T3 fibroblast cytotoxicity, dose response, cytotoxicity control, cell-based, fluorescence, Alamar Blue, secondary assay (AID 2327); assay type: functional;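 further: NIH-3T3 mouse fibroblasts cultured with fluconazole at 8 µg/mL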
# [13] = tested on: Streptococcus sp. 'group A'; assay: Streptococcus pyogenes SK(-)GAS viability under kanamycin – luminescence, BacTiterGlo, confirmation, counter-screen for streptokinase expression inhibitor project, dose response (AID 1900); assay type: functional, organism-based
# [14] = fluconazole-exposed Candida albicans growth modulators – fluorescence, retest, confirmation (AID 2467); assay type: functional, cell-based
# [15] = Trypanosoma cruzi growth suppression in host cells – NIH3T3 host cells, beta-gal luminescence, confirmation (AID 2044); assay type: functional, cell-based;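 further: intracellular parasites grown in NIH/3T3 mouse fibroblasts as host cells; luminescent beta-galactosidase reporter signal from transgenic T. cruzi replicating inside host cells; inhibitors lower the luminescence signal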
# [16] = biological target: T4, Serine/threonine-protein phosphatase (Candida dubliniensis (strain CD36 / CBS 7987 / NCPF 3949 / NRRLY-17841) (Yeast), UniProt B9W6M3); assay: blockers of CaCl2-induced CDRE-lacZ signaling – S. cerevisiae, luminescence, secondary, dose response (AID 2388); assay type: functional, cell-based;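 further: yeast reporter cells carrying a calcineurin-responsive lacZ construct stimulated with calcium chloride; luminescent beta-galactosidase reporter signal in whole cells rather than isolated phosphatase activity; potency for inhibition where a drop in reporter signal means calcineurin blockade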
# T4 sequence (B9W6M3 whole entry): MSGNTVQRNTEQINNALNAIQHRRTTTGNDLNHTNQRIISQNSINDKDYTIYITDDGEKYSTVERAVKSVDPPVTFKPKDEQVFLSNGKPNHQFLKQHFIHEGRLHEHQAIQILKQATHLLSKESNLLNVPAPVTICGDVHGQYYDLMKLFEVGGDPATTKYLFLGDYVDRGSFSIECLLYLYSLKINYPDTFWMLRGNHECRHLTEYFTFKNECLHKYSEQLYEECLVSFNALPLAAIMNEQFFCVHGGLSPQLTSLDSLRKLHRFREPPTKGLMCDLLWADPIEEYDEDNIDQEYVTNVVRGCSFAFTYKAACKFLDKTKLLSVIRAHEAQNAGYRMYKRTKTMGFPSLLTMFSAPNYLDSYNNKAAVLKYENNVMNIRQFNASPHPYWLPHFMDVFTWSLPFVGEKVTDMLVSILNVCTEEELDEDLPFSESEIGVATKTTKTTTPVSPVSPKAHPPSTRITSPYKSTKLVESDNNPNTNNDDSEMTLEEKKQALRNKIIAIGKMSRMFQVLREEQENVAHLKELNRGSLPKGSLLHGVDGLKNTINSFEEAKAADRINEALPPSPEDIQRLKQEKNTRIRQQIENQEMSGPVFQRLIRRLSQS
# [17] = biological target: T5, Kappa-type opioid receptor (Homo sapiens, UniProt P41145); assay type: functional
# T5 sequence (P41145 whole entry): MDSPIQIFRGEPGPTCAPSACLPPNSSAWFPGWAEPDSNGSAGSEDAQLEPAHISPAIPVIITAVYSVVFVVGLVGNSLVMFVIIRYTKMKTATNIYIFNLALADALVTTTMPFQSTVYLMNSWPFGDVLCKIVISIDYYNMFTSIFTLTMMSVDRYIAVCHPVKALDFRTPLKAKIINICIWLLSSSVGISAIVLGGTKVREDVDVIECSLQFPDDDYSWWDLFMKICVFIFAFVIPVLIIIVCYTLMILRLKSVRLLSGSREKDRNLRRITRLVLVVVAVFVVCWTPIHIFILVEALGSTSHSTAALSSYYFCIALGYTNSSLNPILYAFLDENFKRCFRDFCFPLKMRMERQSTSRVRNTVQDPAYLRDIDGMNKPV
# [18] = NIH3T3 cell viability loss – ATP luminescence, mouse fibroblasts, counter-screen, dose response (AID 2010); assay type: functional, cell-based;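 further: cells exposed to compound for about 90 hours before reading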
# [19] = biological target: Beta-galactosidase (Escherichia coli, UniProt Q8VNN2); assay type: functional
# Sequence of Beta-galactosidase (Q8VNN2 whole entry): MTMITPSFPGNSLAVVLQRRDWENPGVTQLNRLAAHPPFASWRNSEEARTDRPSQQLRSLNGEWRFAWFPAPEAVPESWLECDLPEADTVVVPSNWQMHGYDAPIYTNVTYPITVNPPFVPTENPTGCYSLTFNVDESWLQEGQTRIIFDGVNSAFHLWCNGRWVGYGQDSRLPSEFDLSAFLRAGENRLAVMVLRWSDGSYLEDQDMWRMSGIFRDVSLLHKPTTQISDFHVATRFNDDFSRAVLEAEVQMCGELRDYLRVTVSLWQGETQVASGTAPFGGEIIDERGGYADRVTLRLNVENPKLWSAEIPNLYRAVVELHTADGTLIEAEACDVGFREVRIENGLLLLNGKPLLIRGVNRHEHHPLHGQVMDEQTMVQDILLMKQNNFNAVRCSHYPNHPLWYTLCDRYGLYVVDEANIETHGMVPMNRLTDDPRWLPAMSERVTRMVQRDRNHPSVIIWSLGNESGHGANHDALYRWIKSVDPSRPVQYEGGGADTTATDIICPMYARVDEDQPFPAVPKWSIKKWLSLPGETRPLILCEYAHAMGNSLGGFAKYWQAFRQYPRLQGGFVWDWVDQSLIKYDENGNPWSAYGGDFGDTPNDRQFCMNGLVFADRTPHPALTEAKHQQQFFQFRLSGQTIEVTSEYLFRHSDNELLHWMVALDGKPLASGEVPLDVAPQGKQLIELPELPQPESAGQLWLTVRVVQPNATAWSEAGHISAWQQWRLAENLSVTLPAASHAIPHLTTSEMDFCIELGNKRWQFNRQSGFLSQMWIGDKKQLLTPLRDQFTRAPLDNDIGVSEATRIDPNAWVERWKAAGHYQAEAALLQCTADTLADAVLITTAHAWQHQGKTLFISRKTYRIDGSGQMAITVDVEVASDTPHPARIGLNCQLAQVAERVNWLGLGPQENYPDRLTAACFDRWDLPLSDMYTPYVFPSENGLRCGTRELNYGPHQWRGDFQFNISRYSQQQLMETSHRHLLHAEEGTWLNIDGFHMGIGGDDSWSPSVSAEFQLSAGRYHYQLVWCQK
# [20] = biological target: T5, Kappa-type opioid receptor; assay type: functional; remark: listed apart in the source
# [21] = tested on: Streptococcus; assay: GAS UMAA2166 growth inhibition – luminescence, BacTiterGlo, counter-screen for streptokinase expression inhibitor project, dose response (AID 1915); assay type: functional, organism-based;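 further: potency for reduction of bacterial viability or growth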
# [22] = biological target: Exodeoxyribonuclease V (Escherichia coli (strain K12), UniProt P04993+P07648+P08394); assay: RecBCD inhibition via phage-restricted bacterial growth – absorbance, V66 E. coli, mutant T4 phage, counter-screen for AddAB inhibitor project, dose response (AID 492957); assay type: functional, cell-based, Escherichia coli str. K-12 substr. MG1655
# [23] = Counterscreen for AddAB inhibitors: absorbance-based bacterial cell-based high throughput dose response assay for inhibitors of bacterial viability. [Related pubchem assays (depositor defined):AID435030, AID449728, AID449731, AID488942, AID488955, AID488956]; assay type: functional
# [24] = tested on: INS1; assay: INS-1E survival protection against cytokine death – cell-based, luminescence, retest, dose response (AID 449756); assay type: functional; settings: Rattus norvegicus;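 further: cell death triggered by IL-1 beta plus TNF-alpha plus IFN-gamma mixture; protective hits raise ATP signal compared with cytokine alone wells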
# [25] = biological target: ATP-dependent molecular chaperone HSP82 (Candida albicans (strain WO-1) (Yeast), UniProt C4YTQ8); assay: steroid-induced GRE reporter decrease in yeast – S. cerevisiae, luminescence, Hsp90 inhibitor project, dose response (AID 2400); assay type: functional, cell-based;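 further: beta-galactosidase luminescence from glucocorticoid response element reporter as proxy for Hsp90 function; inhibitor potency where signal loss means Hsp90 inhibition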
# Sequence of ATP-dependent molecular chaperone HSP82 (C4YTQ8 whole entry): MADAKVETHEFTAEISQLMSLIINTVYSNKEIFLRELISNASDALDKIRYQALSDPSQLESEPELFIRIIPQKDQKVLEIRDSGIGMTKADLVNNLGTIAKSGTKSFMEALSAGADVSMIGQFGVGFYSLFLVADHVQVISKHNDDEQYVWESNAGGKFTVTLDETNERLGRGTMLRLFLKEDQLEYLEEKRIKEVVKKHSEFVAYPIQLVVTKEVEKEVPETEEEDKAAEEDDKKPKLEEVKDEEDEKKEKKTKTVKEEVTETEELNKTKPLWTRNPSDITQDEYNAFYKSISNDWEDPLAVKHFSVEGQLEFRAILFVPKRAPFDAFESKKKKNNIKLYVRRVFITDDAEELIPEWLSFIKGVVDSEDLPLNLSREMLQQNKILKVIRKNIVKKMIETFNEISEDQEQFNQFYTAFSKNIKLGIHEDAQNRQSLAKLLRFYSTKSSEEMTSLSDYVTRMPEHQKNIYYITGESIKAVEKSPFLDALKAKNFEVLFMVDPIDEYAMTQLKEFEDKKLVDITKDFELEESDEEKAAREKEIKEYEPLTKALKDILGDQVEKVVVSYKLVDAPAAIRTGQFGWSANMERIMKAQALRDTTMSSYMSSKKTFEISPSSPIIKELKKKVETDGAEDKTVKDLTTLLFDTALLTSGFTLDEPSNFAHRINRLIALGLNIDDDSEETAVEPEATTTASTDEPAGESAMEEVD
structure (smiles),measurement,setting,value
COC(=O)CNc1nnc(S)nc1O,EC50,[1],1.61 µM (active)
same,EC50,[2],53.6 µM (not active)
same,EC50,[3],2.15 µM (active)
O=C1c2c(Cl)c(Cl)c(Cl)c(Cl)c2C(=O)N1c1nc(Cc2ccccc2)n[nH]1,IC50,[4],> 100 µM (not active)
same,IC50,[5],> 100 µM (inactive)
O=C1NC(=S)N(C2CC2)C(=O)/C1=C/c1ccc2c(c1)CCN2CCCCl,IC50,[6],2.61 µM (active)
same,IC50,[7],> 50 µM (inactive)
same,CC50,[8],85.4 µM (active)
same,IC50,[9],95.6 µM (active)
CCCC[N@+]12CC[C@H](CC1)C(=C(c1ccccc1)c1ccccc1)C2,IC50,[10],2.16 µM (active)
same,IC50,[11],2.19 µM (active)
Oc1ccc(N=Nc2ccc3c(c2)OCCO3)c2ncccc12,EC50,[12],> 150 µM (inconclusive)
same,EC50,[13],0.682 µM (active)
same,EC50,[14],0.872 µM (active)
same,EC50,[15],0.91 µM (active)
same,EC50,[16],> 180 µM (inactive)
same,IC50,[17],4.93 µM (active)
same,EC50,[18],4.43 µM (active)
same,EC50,[19],25.3 µM (active)
same,IC50,[20],> 32 µM
same,EC50,[21],2.27 µM (active)
same,IC50,[22],> 119 µM (inactive)
same,IC50,[23],> 119 µM (inactive)
same,AC50,[24],2.32 µM (active)
same,EC50,[25],11.7 µM (active)
